Legend:
Type in all cases: in vivo
[1] = tested on: velvetleaf (Abutilon theophrasti); experiment: Test B pre-/postemergence; parameters: key: 0 is no effect; 10 is complete control
Description: (§1) Seeds of bedstraw (Galium aparine), blackgrass (Alopecurus myosuroides), broadleaf signalgrass (Brachiaria decumbens), cocklebur (Xanthium strumarium), corn (Zea mays), crabgrass (Digitaria sanguinalis), giant foxtail (Setaria faberii), lambsquarters (Chenopodium album), momingglory (Ipomoea hederacea), pigweed (Amaranthus retroflexus), rape (Brassica napus), soybean (Glycine max), sugar beet (Beta vulgaris), velvetleaf (Abutilon theophrasti), wheat (Triticum aestivum), wild oat (Avena fatua) and purple nutsedge (Cyperus rotundus) tubers were planted and treated preemergence with test chemicals formulated in a non-phytotoxic solvent mixture which included a surfactant.
(§2) At the same time, these crop and weed species were also treated with postemergence applications of test chemicals formulated in the same manner. Plants ranged in height from 2 to 18 cm (1- to 4-leaf stage) for postemergence treatments. Plant species in the flood test consisted of rice (Oryza sativa), smallflower flatsedge (Cyperus difformis), duck salad (Heteranthera limosa) and bamyardgrass (Echinochloa crus-galli) grown to the 2-leaf stage for testing. Treated plants and controls were maintained in a greenhouse for twelve to sixteen days, after which all species were compared to controls and visually evaluated. Plant response ratings, summarized in Table B, are based on a scale of 0 to 10 where 0 is no effect and 10 is complete control. A dash (−) response means no test result.

[2] = tested on: wild oat (Avena fatua); experiment: Test B pre-/postemergence; parameters: key: 0 is no effect; 10 is complete control
Description: as §1, §2

[3] = tested on: purple nutsedge (Cyperus rotundus); experiment: Test B pre-/postemergence; parameters: key: 0 is no effect; 10 is complete control
Description: as §1, §2

[4] = tested on: cocklebur (Xanthium strumarium); experiment: Test B pre-/postemergence; parameters: key: 0 is no effect; 10 is complete control
Description: as §1, §2

[5] = tested on: bedstraw (Galium aparine); experiment: Test B pre-/postemergence; parameters: key: 0 is no effect; 10 is complete control
Description: as §1, §2

[6] = tested on: crabgrass (Digitaria sanguinalis); experiment: Test B pre-/postemergence; parameters: key: 0 is no effect; 10 is complete control
Description: as §1, §2

[7] = tested on: giant foxtail (Setaria faberii); experiment: Test B pre-/postemergence; parameters: key: 0 is no effect; 10 is complete control
Description: as §1, §2

[8] = tested on: corn (Zea mays); experiment: Test B pre-/postemergence; parameters: key: 0 is no effect; 10 is complete control
Description: as §1, §2

[9] = tested on: sugar beet (Beta vulgaris); experiment: Test B pre-/postemergence; parameters: key: 0 is no effect; 10 is complete control
Description: as §1, §2

[10] = tested on: blackgrass (Alopecurus myosuroides); experiment: Test B pre-/postemergence; parameters: key: 0 is no effect; 10 is complete control
Description: as §1, §2

[11] = tested on: rape (Brassica napus); experiment: Test B pre-/postemergence; parameters: key: 0 is no effect; 10 is complete control
Description: as §1, §2

[12] = tested on: wheat (Triticum aestivum); experiment: Test B pre-/postemergence; parameters: key: 0 is no effect; 10 is complete control
Description: as §1, §2

[13] = tested on: momingglory (Ipomoea hederacea); experiment: Test B pre-/postemergence; parameters: key: 0 is no effect; 10 is complete control
Description: as §1, §2

[14] = tested on: soybean (Glycine max); experiment: Test B pre-/postemergence; parameters: key: 0 is no effect; 10 is complete control
Description: as §1, §2

[15] = tested on: pigweed (Amaranthus retroflexus); experiment: Test B pre-/postemergence; parameters: key: 0 is no effect; 10 is complete control
Description: as §1, §2

[16] = tested on: broadleaf signalgrass (Brachiaria decumbens); experiment: Test B pre-/postemergence; parameters: key: 0 is no effect; 10 is complete control
Description: as §1, §2

[17] = tested on: rice (Oryza sativa); experiment: Test B flood test
In short: (§3)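 Flood test on plants grown to the 2-leaf stage; treated plants kept in greenhouse twelve to sixteen days, then visually rated against controls on a 0 (no effect) to 10 (complete control) scale.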

[18] = tested on: bamyardgrass (Echinochloa crus-galli); experiment: Test B flood test
In short: as §3

[19] = tested on: smallflower flatsedge (Cyperus difformis); experiment: Test B flood test
In short: as §3

[20] = tested on: duck salad (Heteranthera limosa); experiment: Test B flood test
In short: as §3

[21] = Rate 62 g/ha, Postemergence (flood test)
[22] = Rate 125 g/ha, Postemergence, flood test
[23] = Rate 250 g/ha, Postemergence (flood test species)

Compound: Cc1cnc(-c2ccc(C(F)(F)F)cc2)nc1C(C#N)c1cccc(C(F)(F)F)c1 (racemic) [Compound 17]
- Plant response rating, Velvetleaf ([1]; Rate 62 g/ha, Postemergence): 2
- Velvetleaf plant response rating ([1]; Rate 62 g/ha, Preemergence): 0
- Plant response rating, Velvetleaf ([1]; Rate 125 g/ha, Postemergence): 4
- Velvetleaf plant response rating ([1]; Rate 125 g/ha, Preemergence): 1
- Plant response rating, Velvetleaf ([1]; Rate 250 g/ha, Postemergence): 7
- Plant response rating, Velvetleaf ([1]; Rate 250 g/ha, Preemergence): 1
- Plant response rating, Wild oats ([2]; Rate 62 g/ha, Postemergence): 3
- Wild oats plant response rating ([2]; Rate 62 g/ha, Preemergence): 2
- Plant response rating, Wild oats ([2]; Rate 125 g/ha, Postemergence): 4
- Wild oats plant response rating ([2]; Rate 125 g/ha, Preemergence): 5
- Plant response rating, Wild oats ([2]; Rate 250 g/ha, Postemergence): 5
- Plant response rating, Wild oats ([2]; Rate 250 g/ha, Preemergence): 8
- Plant response rating, Nutsedge ([3]; Rate 62 g/ha, Postemergence): 0
- Nutsedge plant response rating ([3]; Rate 62 g/ha, Preemergence): 0
- Plant response rating, Nutsedge ([3]; Rate 125 g/ha, Postemergence): 0
- Nutsedge plant response rating ([3]; Rate 125 g/ha, Preemergence): 0
- Plant response rating, Nutsedge ([3]; Rate 250 g/ha, Postemergence): 0
- Plant response rating, Nutsedge ([3]; Rate 250 g/ha, Preemergence): 0
- Plant response rating, Cocklebur ([4]; Rate 62 g/ha, Postemergence): 4
- Cocklebur plant response rating ([4]; Rate 62 g/ha, Preemergence): 0
- Plant response rating, Cocklebur ([4]; Rate 125 g/ha, Postemergence): 8
- Cocklebur plant response rating ([4]; Rate 125 g/ha, Preemergence): 0
- Plant response rating, Cocklebur ([4]; Rate 250 g/ha, Postemergence): 8
- Plant response rating, Cocklebur ([4]; Rate 250 g/ha, Preemergence): 0
- Plant response rating, Bedstraw ([5]; Rate 62 g/ha, Postemergence): 8
- Bedstraw plant response rating ([5]; Rate 62 g/ha, Preemergence): 1
- Plant response rating, Bedstraw ([5]; Rate 125 g/ha, Postemergence): 9
- Bedstraw plant response rating ([5]; Rate 125 g/ha, Preemergence): 3
- Plant response rating, Bedstraw ([5]; Rate 250 g/ha, Postemergence): 9
- Plant response rating, Bedstraw ([5]; Rate 250 g/ha, Preemergence): 5
- Plant response rating, Crabgrass ([6]; Rate 62 g/ha, Postemergence): 4
- Crabgrass plant response rating ([6]; Rate 62 g/ha, Preemergence): 3
- Plant response rating, Crabgrass ([6]; Rate 125 g/ha, Postemergence): 4
- Crabgrass plant response rating ([6]; Rate 125 g/ha, Preemergence): 8
- Plant response rating, Crabgrass ([6]; Rate 250 g/ha, Postemergence): 4
- Plant response rating, Crabgrass ([6]; Rate 250 g/ha, Preemergence): 9
- Plant response rating, Giant foxtail ([7]; Rate 62 g/ha, Postemergence): 2
- Giant foxtail plant response rating ([7]; Rate 62 g/ha, Preemergence): 5
- Plant response rating, Giant foxtail ([7]; Rate 125 g/ha, Postemergence): 4
- Giant foxtail plant response rating ([7]; Rate 125 g/ha, Preemergence): 10
- Plant response rating, Giant foxtail ([7]; Rate 250 g/ha, Postemergence): 5
- Plant response rating, Giant foxtail ([7]; Rate 250 g/ha, Preemergence): 10
- Plant response rating, Corn ([8]; Rate 62 g/ha, Postemergence): 2
- Corn plant response rating ([8]; Rate 62 g/ha, Preemergence): 0
- Plant response rating, Corn ([8]; Rate 125 g/ha, Postemergence): 2
- Corn plant response rating ([8]; Rate 125 g/ha, Preemergence): 0
- Plant response rating, Corn ([8]; Rate 250 g/ha, Postemergence): 3
- Plant response rating, Corn ([8]; Rate 250 g/ha, Preemergence): 1
- Plant response rating, Sugarbeets ([9]; Rate 62 g/ha, Postemergence): 9
- Sugarbeets plant response rating ([9]; Rate 62 g/ha, Preemergence): 1
- Plant response rating, Sugarbeets ([9]; Rate 125 g/ha, Postemergence): 10
- Sugarbeets plant response rating ([9]; Rate 125 g/ha, Preemergence): 8
- Plant response rating, Sugarbeets ([9]; Rate 250 g/ha, Postemergence): 10
- Plant response rating, Sugarbeets ([9]; Rate 250 g/ha, Preemergence): 9
- Plant response rating, Blackgrass ([10]; Rate 62 g/ha, Postemergence): 3
- Blackgrass plant response rating ([10]; Rate 62 g/ha, Preemergence): 2
- Plant response rating, Blackgrass ([10]; Rate 125 g/ha, Postemergence): 6
- Blackgrass plant response rating ([10]; Rate 125 g/ha, Preemergence): 6
- Plant response rating, Blackgrass ([10]; Rate 250 g/ha, Postemergence): 7
- Plant response rating, Blackgrass ([10]; Rate 250 g/ha, Preemergence): 9
- Plant response rating, Rape ([11]; Rate 62 g/ha, Postemergence): 7
- Rape plant response rating ([11]; Rate 62 g/ha, Preemergence): 0
- Plant response rating, Rape ([11]; Rate 125 g/ha, Postemergence): 8
- Rape plant response rating ([11]; Rate 125 g/ha, Preemergence): 2
- Plant response rating, Rape ([11]; Rate 250 g/ha, Postemergence): 8
- Plant response rating, Rape ([11]; Rate 250 g/ha, Preemergence): 3
- Plant response rating, Wheat ([12]; Rate 62 g/ha, Postemergence): 3
- Wheat plant response rating ([12]; Rate 62 g/ha, Preemergence): 0
- Plant response rating, Wheat ([12]; Rate 125 g/ha, Postemergence): 3
- Wheat plant response rating ([12]; Rate 125 g/ha, Preemergence): 1
- Plant response rating, Wheat ([12]; Rate 250 g/ha, Postemergence): 4
- Plant response rating, Wheat ([12]; Rate 250 g/ha, Preemergence): 3
- Plant response rating, Morningglory ([13]; Rate 62 g/ha, Postemergence): 7
- Morningglory plant response rating ([13]; Rate 62 g/ha, Preemergence): 0
- Plant response rating, Morningglory ([13]; Rate 125 g/ha, Postemergence): 8
- Morningglory plant response rating ([13]; Rate 125 g/ha, Preemergence): 1
- Plant response rating, Morningglory ([13]; Rate 250 g/ha, Postemergence): 8
- Plant response rating, Morningglory ([13]; Rate 250 g/ha, Preemergence): 2
- Plant response rating, Soybean ([14]; Rate 62 g/ha, Postemergence): 3
- Soybean plant response rating ([14]; Rate 62 g/ha, Preemergence): 0
- Plant response rating, Soybean ([14]; Rate 125 g/ha, Postemergence): 3
- Soybean plant response rating ([14]; Rate 125 g/ha, Preemergence): 0
- Plant response rating, Soybean ([14]; Rate 250 g/ha, Postemergence): 8
- Plant response rating, Soybean ([14]; Rate 250 g/ha, Preemergence): 0
- Plant response rating, Redroot pigweed ([15]; Rate 62 g/ha, Postemergence): 9
- Redroot pigweed plant response rating ([15]; Rate 62 g/ha, Preemergence): 4
- Plant response rating, Redroot pigweed ([15]; Rate 125 g/ha, Postemergence): 10
- Redroot pigweed plant response rating ([15]; Rate 125 g/ha, Preemergence): 9
- Plant response rating, Redroot pigweed ([15]; Rate 250 g/ha, Postemergence): 10
- Plant response rating, Redroot pigweed ([15]; Rate 250 g/ha, Preemergence): 10
- Plant response rating, B. signalgrass ([16]; Rate 62 g/ha, Postemergence): 4
- B. signalgrass plant response rating ([16]; Rate 62 g/ha, Preemergence): 3
- Plant response rating, B. signalgrass ([16]; Rate 125 g/ha, Postemergence): 5
- B. signalgrass plant response rating ([16]; Rate 125 g/ha, Preemergence): 7
- Plant response rating, B. signalgrass ([16]; Rate 250 g/ha, Postemergence): 7
- Plant response rating, B. signalgrass ([16]; Rate 250 g/ha, Preemergence): 9
- Plant response rating, Rice [17, 21]: 4
- Plant response rating, Rice [17, 22]: 4
- Plant response rating, Rice [17, 23]: 6
- Plant response rating, Barnyardgrass [18, 21]: 4
- Plant response rating, Barnyardgrass [18, 22]: 4
- Plant response rating, Barnyardgrass [18, 23]: 6
- Plant response rating, S. Flatsedge [19, 21]: 2
- Plant response rating, S. Flatsedge [19, 22]: 3
- Plant response rating, S. Flatsedge [19, 23]: 5
- Plant response rating, Ducksalad [20, 21]: 3
- Plant response rating, Ducksalad [20, 22]: 5
- Plant response rating, Ducksalad [20, 23]: 5

— US6525001B1, “Substituted pyrimidine and pyridine herbicides” (Mid-American Commercialization Corporation, priority 1997, dated 2003)
